Experimental findings from patent US12643879B2, “Functionalized heterocyclic compounds as modulators of stimulator of interferon genes (STING)” (RYVU THERAPEUTICS S.A., priority 2019, dated 2026) are described below.

SMILES strings stand for the structures.

Experiment [1] has as its system interferon regulatory factor (IRF) pathway in THP-1 dual cells. The experiment can be described thus: THP-1 Dual reporter assay, IRF pathway (luciferase). Type of experiment: cell-based. The settings on record: 18 h stimulation, luminescence; for EC50: Homo sapiens, THP1-Dual, read-out: THP1 Dual EC50 (μM) IRF. Put shortly: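 Compounds (STING agonists) stimulated THP-1 dual cells for 18 h; the cells carry an ISG54 promoter/ISRE-driven luciferase (IRF) and an IFN-β minimal promoter/NF-κB element-driven SEAP. Luciferase in conditioned medium was read by luminescence immediately; SEAP by absorbance at 630 or 655 nm after 1 or 2 h at 37° C.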
(Reporter assays use an easily measured gene product as a stand-in for the process of interest.)

The subject of experiment [2] is NF-κB pathway in THP-1 dual cells. The experiment in a line: THP-1 Dual reporter assay, NF-κB pathway (SEAP). In kind it is cell-based. As to conditions: 18 h stimulation, absorbance at 630 or 655 nm; for EC50: Homo sapiens, THP1-Dual, read-out: THP1 Dual EC50 (μM) NFkB. Put shortly: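 Readouts come from THP-1 dual cell supernatant taken 18 h after STING agonist addition. SEAP activity is developed in detection medium for 1–2 h at 37° C and read at 630/655 nm; luciferase is read by luminescence immediately after reagent addition.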

In a further experiment the target is human STING (Homo sapiens, UniProt Q86WV6). The experiment can be described thus: Fluorescence Thermal Shift assay (binding to STING). As to conditions: STING 0.1 mg/mL, SyproOrange, 25 to 99° C. The method, then: Compounds, constructs and conjugates of the present invention were tested for binding to human STING in Fluorescence Thermal Shift assay. STING was preincubated with the compounds for 20 minutes in 50 mM Hepes, 150 mM NaCl, pH 7.5 in 15 or 16 μl volume, following by adding 4 μl of SyproOrange dye dilution (ThermoFisher, cat no. S-6651). Final STING concentration was 0.1 mg/mL. Thermal unfolding was performed in Real-Time PCR QuantStudio 6 Flex System (Applied Biosystems), from 25 to 99° C., with continuous ramp mode and ramp rate 0.033° C./s. The data were analyzed using Protein Thermal Shift Software (ThermoFisher).
Chain of human STING (Q86WV6 whole entry H232R): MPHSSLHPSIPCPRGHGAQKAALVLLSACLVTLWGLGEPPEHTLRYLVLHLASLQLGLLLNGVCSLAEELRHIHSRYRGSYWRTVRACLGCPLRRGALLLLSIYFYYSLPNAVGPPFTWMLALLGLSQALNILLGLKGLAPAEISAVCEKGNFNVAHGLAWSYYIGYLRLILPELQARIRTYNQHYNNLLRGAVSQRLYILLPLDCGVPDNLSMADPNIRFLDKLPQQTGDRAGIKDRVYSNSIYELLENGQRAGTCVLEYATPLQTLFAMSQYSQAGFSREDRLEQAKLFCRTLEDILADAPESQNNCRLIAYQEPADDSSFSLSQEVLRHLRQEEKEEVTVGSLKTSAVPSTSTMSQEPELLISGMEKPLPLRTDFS

One may read the EC50 as the midpoint of the concentration-response curve. Take `Cc1ccc(N2CCC[C@H](N(Cc3ccnc(C)c3)Cc3cn(C4CC4)c4cc(N5CCC[C@@H](O)C5)c(F)cc4c3=O)C2)cn1.Cl` [Example 28, 1-cyclopropyl-6-fluoro-7-[(3R)-3-hydroxypiperidin-1-yl]-3-({[(3S)-1-(6-methylpyridin-3-yl)piperidin-3-yl][(2-methylpyridin-4-yl)methyl]amino}methyl)-1,4-dihydroquinolin-4-one hydrochloride]: the EC50 in experiment [1] and in experiment [2] was < 1 µM each time. The “hSTING FTS binding assay (ΔT C. °)” value at human STING was “+++ (+++=ΔTm ≥20° C.)”.

In the case of `CNC1CCN(c2cc3c(cc2F)c(=O)c(CN(Cc2ccnc(C)c2)[C@H]2CCCN(c4ccc(C)nc4)C2)cn3C2CC2)CC1.Cl` [Example 19, 1-cyclopropyl-6-fluoro-7-[4-(methylamino)piperidin-1-yl]-3-({[(3S)-1-(6-methylpyridin-3-yl)piperidin-3-yl][(2-methylpyridin-4-yl)methyl]amino}methyl)-1,4-dihydroquinolin-4-one hydrochloride], the EC50 in experiment [1] and in experiment [2] was < 1 µM in each case. For the same compound, the “hSTING FTS binding assay (ΔT C. °)” value on human STING is “+++ (+++=ΔTm ≥20° C.)”.

As for `Cc1ccc(N2CCC[C@H](N(Cc3ccnc(C)c3)Cc3cn(C4CC4)c4cc(N5CCC[C@@H](N)C5)c(F)cc4c3=O)C2)cn1` [Example 17, 7-[(3R)-3-Aminopiperidin-1-yl]-1-cyclopropyl-6-fluoro-3-({[(3S)-1-(6-methylpyridin-3-yl)piperidin-3-yl][(2-methylpyridin-4-yl)methyl]amino}methyl)-1,4-dihydroquinolin-4-one], the EC50 in experiment [1] and in experiment [2] was < 1 µM each time. In addition, the “hSTING FTS binding assay (ΔT C. °)” value at human STING is reported as “+++ (+++=ΔTm ≥20° C.)”.

For `Cc1cc(CN(Cc2cn(C)c3ccccc3c2=O)[C@H]2CCCN(c3ccc(CN)nc3)C2)ccn1.Cl` [Example 3, 3-({[(3S)-1-[6-(Aminomethyl)pyridin-3-yl]piperidin-3-yl][(2-methylpyridin-4-yl)methyl]amino}methyl)-1-methyl-1,4-dihydroquinolin-4-one hydrochloride], the EC50 is < 1 µM in experiment [1] and 1 to 10 µM in experiment [2]. Besides, the “hSTING FTS binding assay (ΔT C. °)” value at human STING was “+ (+=ΔTm ≤10° C.)”.

In the case of `Cc1cc(CN(Cc2cn(C3CC3)c3cc(N4CC[C@@H](O)C4)c(F)cc3c2=O)[C@H]2CCCN(c3cccnc3)C2)ccn1` [Example 78, 1-Cyclopropyl-6-fluoro-7-[(3R)-3-hydroxypyrrolidin-1-yl]-3-({[(2-methylpyridin-4-yl)methyl][(3S)-1-(pyridin-3-yl)piperidin-3-yl]amino}methyl)-1,4-dihydroquinolin-4-one], the EC50 in experiment [1] and in experiment [2] was < 1 µM in each case. Also, the “hSTING FTS binding assay (ΔT C. °)” value on human STING was “+++ (+++=ΔTm ≥20° C.)”.

As to `CNC1CCN(c2cc3c(cc2F)c(=O)c(CN(Cc2ccnc(C)c2)[C@H]2CCCN(c4ccc(C)nc4)C2)cn3C2CC2)C1` (stereo partly drawn) [Example 33, 1-cyclopropyl-6-fluoro-7-[3-(methylamino)pyrrolidin-1-yl]-3-({[(3S)-1-(6-methylpyridin-3-yl)piperidin-3-yl][(2-methylpyridin-4-yl)methyl]amino}methyl)-1,4-dihydroquinolin-4-one], the EC50 in experiment [1] and in experiment [2] was < 1 µM in each case. The “hSTING FTS binding assay (ΔT C. °)” value on human STING was “+++ (+++=ΔTm ≥20° C.)”.

Take `Cc1ccc(N2CCC[C@H](N(Cc3ccnc(C)c3)Cc3cn(C4CC4)c4cc(N5CC[C@@H](N)C5)c(F)cc4c3=O)C2)cn1.Cl` [Example 12, 7-[(3R)-3-Aminopyrrolidin-1-yl]-1-cyclopropyl-6-fluoro-3-({[(3S)-1-(6-methylpyridin-3-yl)piperidin-3-yl][(2-methylpyridin-4-yl)methyl]amino}methyl)-1,4-dihydroquinolin-4-one hydrochloride]: the EC50 in experiment [1] and in experiment [2] was < 1 µM in each case. Also, the “hSTING FTS binding assay (ΔT C. °)” value on human STING is given as “+++ (+++=ΔTm ≥20° C.)”.

In the case of `Cc1ccc(N2CCC[C@H](N(Cc3ccnc(N)c3)Cc3cn(C4CC4)c4cc(F)c(F)cc4c3=O)C2)cn1.Cl` [Example 5, 3-({[(2-Aminopyridin-4-yl)methyl][(3S)-1-(6-methylpyridin-3-yl)piperidin-3-yl]amino}methyl)-1-cyclopropyl-6,7-difluoro-1,4-dihydroquinolin-4-one hydrochloride], the EC50 in experiment [1] and in experiment [2] was < 1 µM in each case. The “hSTING FTS binding assay (ΔT C. °)” value at human STING was “+++ (+++=ΔTm ≥20° C.)”.

As for `Cc1cc(CN(Cc2cn(C3CC3)c3cc(N4CCC[C@H](O)C4)c(F)cc3c2=O)[C@H]2CCCN(c3cccnc3)C2)ccn1.Cl` [Example 86, 1-cyclopropyl-6-fluoro-7-[(3S)-3-hydroxypiperidin-1-yl]-3-({[(2-methylpyridin-4-yl)methyl][(3S)-1-(pyridin-3-yl)piperidin-3-yl]amino}methyl)-1,4-dihydroquinolin-4-one hydrochloride], the EC50 in experiment [1] and in experiment [2] was < 1 µM each time. Also, the “hSTING FTS binding assay (ΔT C. °)” value at human STING is reported as “+++ (+++=ΔTm ≥20° C.)”.

In the case of `Cc1ccc(N2CCC[C@H](N(Cc3ccnc(C)c3)Cc3cn(C4CC4)c4cc(N5CC(CO)C5)c(F)cc4c3=O)C2)cn1` [Example 27, 1-cyclopropyl-6-fluoro-7-[3-(hydroxymethyl)azetidin-1-yl]-3-({[(3S)-1-(6-methylpyridin-3-yl)piperidin-3-yl][(2-methylpyridin-4-yl)methyl]amino}methyl)-1,4-dihydroquinolin-4-one], the EC50 in experiment [1] and in experiment [2] was < 1 µM in each case. For the same compound, on human STING, the “hSTING FTS binding assay (ΔT C. °)” value is on record as “+++ (+++=ΔTm ≥20° C.)”.

As for `Cc1ccc(N2CCC[C@H](N(Cc3ccnc(C)c3)Cc3cn(C4CC4)c4cc(N5CC(N)C6(CC6)C5)c(F)cc4c3=O)C2)cn1.Cl` (stereo partly drawn) [Example 22, 7-{7-amino-5-azaspiro[2.4]heptan-5-yl}-1-cyclopropyl-6-fluoro-3-({[(3S)-1-(6-methylpyridin-3-yl)piperidin-3-yl][(2-methylpyridin-4-yl)methyl]amino}methyl)-1,4-dihydroquinolin-4-one hydrochloride], the EC50 in experiment [1] and in experiment [2] was < 1 µM throughout. The “hSTING FTS binding assay (ΔT C. °)” value at human STING was “+++ (+++=ΔTm ≥20° C.)”.

Regarding `Cc1ccc(N2CCC[C@H](N(Cc3ccnc(C)c3)Cc3cn(C4CC4)c4cc(N5CCC(N)C(F)(F)C5)c(F)cc4c3=O)C2)cn1` (stereo partly drawn) [Example 26, 7-(4-amino-3,3-difluoropiperidin-1-yl)-1-cyclopropyl-6-fluoro-3-({[(3S)-1-(6-methylpyridin-3-yl)piperidin-3-yl][(2-methylpyridin-4-yl)methyl]amino}methyl)-1,4-dihydroquinolin-4-one], the EC50 in experiment [1] and in experiment [2] was < 1 µM throughout. Besides, the “hSTING FTS binding assay (ΔT C. °)” value at human STING was “+++ (+++=ΔTm ≥20° C.)”.

Consider `Cc1cc(CN(Cc2cn(C)c3cc(Br)ccc3c2=O)[C@H]2CCCN(c3ccc(N)nc3)C2)ccn1.Cl` [Example 29, 3-({[(3S)-1-(6-aminopyridin-3-yl)piperidin-3-yl][(2-methylpyridin-4-yl)methyl]amino}methyl)-7-bromo-1-methyl-1,4-dihydroquinolin-4-one hydrochloride], for which the EC50 in experiment [1] and in experiment [2] was < 1 µM in each case. Besides, the “hSTING FTS binding assay (ΔT C. °)” value on human STING was “+++ (+++=ΔTm ≥20° C.)”.

Regarding `Cc1ccc(N2CCC[C@H](N(Cc3ccnc(C)c3)Cc3cn(C4CC4)c4nc(N5CC[C@@H](O)C5)c(F)cc4c3=O)C2)cn1.Cl` [Example 37, 1-cyclopropyl-6-fluoro-7-[(3R)-3-hydroxypyrrolidin-1-yl]-3-({[(3S)-1-(6-methylpyridin-3-yl)piperidin-3-yl][(2-methylpyridin-4-yl)methyl]amino}methyl)-1,4-dihydro-1,8-naphthyridin-4-one hydrochloride], the EC50 in experiment [1] and in experiment [2] was < 1 µM each time. Moreover, at human STING, the “hSTING FTS binding assay (ΔT C. °)” value is reported as “+++ (+++=ΔTm ≥20° C.)”.

Regarding `Cc1cc(CN(Cc2cn(C)c3ccccc3c2=O)[C@H]2CCCN(c3cccc(N)c3)C2)ccn1.Cl` [Example 1, 3-({[(3S)-1-(3-Aminophenyl)piperidin-3-yl][(2-methylpyridin-4-yl)methyl]amino}methyl)-1-methyl-1,4-dihydroquinolin-4-one hydrochloride], the EC50 in experiment [1] and in experiment [2] was 1 to 10 µM each time. For the same compound, the “hSTING FTS binding assay (ΔT C. °)” value at human STING is on record as “+ (+=ΔTm ≤10° C.)”.

Regarding `Cc1ccc(N2CCC[C@H](N(Cc3ccnc(C)c3)Cc3cn(C4CC4)c4cc(OCCO)c(F)cc4c3=O)C2)cn1` [Example 47, 1-Cyclopropyl-6-fluoro-7-(2-hydroxyethoxy)-3-({[(3S)-1-(6-methylpyridin-3-yl)piperidin-3-yl][(2-methylpyridin-4-yl)methyl]amino}methyl)-1,4-dihydroquinolin-4-one], the “THP1 Dual EC50 (μM) IRF” value in experiment [1] was “+ + +”. In experiment [2], the “THP1 Dual EC50 (μM) NFkB” value is “+ + +”. Moreover, the “hSTING FTS binding assay (ΔT C. °)” value at human STING is given as “+++ (+++=ΔTm ≥20° C.)”.
